Patent US10738101B2, “Method for selecting odor-controlling substance” (Kao Corporation, priority 2015, dated 2020)

Columns and labels:
[1] = test system: odor of guaiacol; assay: Sensory test of cross-adaptation, target odor guaiacol; assay type: in vivo, human; conditions: panelists, test sample smelled before target sample, FIG. 6B
Description: (§1) The cross-adaptation effect induced by the odorous substance evaluated in Example 2 was estimated by a sensory test. A glass bottle (No. 11, manufactured by Hakuyo Glass Co., Ltd., capacity: 110 mL) was charged with a target odorous substance to be used as a target sample. As the target odorous substance, muscone, guaiacol or p-cresol was used. As the muscone, a cotton ball soaked with 1 mg of muscone was used. As the guaiacol and p-cresol, 1 mL of a mineral oil (Sigma-Aldrich) solution in a concentration of 10 ppm was used. In a similar manner, a glass bottle was charged with a test substance to be used as a test sample. As the test sample, 5 mg of an ethyl vanillin powder, or 1 mL of a mineral oil (Sigma-Aldrich) solution of p-cresyl acetate, p-cresyl isobutyrate or p-methyl quinoline prepared to a concentration of 1,000 ppm was used.
The sensory test was performed by a single blind method by five to eight panelists. The target sample was first presented to each panelist, who was caused to replay on the odor intensity. Next, the test sample was presented for 2 minutes or until the odor could not be perceived. Thereafter, the target sample was presented again, and the panelist was caused to replay on the odor intensity. This series of operations was defined as one set, and the sensory test was carried out with four sets per day per panelist set as the upper limit. […]

[2] = test system: odor of p-methyl quinoline; assay: Sensory test of cross-adaptation, target odor p-methyl quinoline; assay type: in vivo, human; conditions: panelists
[3] = target: T1, OR1A1 (Homo sapiens, UniProt Q9P1Q5); assay: Luciferase reporter gene assay, OR1A1-expressing HEK293 cells; assay type: cell-based; conditions: screen, muscone 100 μM, FIG. 1
T1 construct: expressed in transfected cells; host or cells: HEK293
T1 sequence (Q9P1Q5 1-309): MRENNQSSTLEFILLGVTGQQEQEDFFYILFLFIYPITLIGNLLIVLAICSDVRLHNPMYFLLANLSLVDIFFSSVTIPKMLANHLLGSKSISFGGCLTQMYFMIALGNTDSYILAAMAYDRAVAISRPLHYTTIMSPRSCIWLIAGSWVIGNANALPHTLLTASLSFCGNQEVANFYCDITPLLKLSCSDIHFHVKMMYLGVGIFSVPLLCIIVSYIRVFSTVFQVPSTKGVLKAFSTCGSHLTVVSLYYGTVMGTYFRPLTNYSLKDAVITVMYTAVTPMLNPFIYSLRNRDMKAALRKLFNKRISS
From the text: On the basis of sequence information registered in GenBank, genes respectively encoding 370 human olfactory receptors shown in Tables 1-1 and 1-2 and genes respectively encoding the human olfactory receptors OR5AN1, OR10G4 and OR9Q2 (respectively set forth in SEQ ID NOS: 1, 3 and 5) were cloned. Each of the genes was cloned by the PCR using human genomic DNA person (G1521: Promega) as a template. Each gene amplified by the PCR was incorporated into a pENTR vector (Invitrogen) in accordance with the instruction, and was recombined to NotI and AscI sites produced downstream from a Flag-Rho tag sequence on a pME18S vector by using NotI and AscI sites present on the pENTR vector.
In 1) of Example 1, HEK293 cells on which the 370 human olfactory receptors were respectively expressed were produced. A reaction solution having a composition shown in Table 2 was prepared and allowed to stand still in a clean bench for 15 minutes, and the resultant was added by 4.4 μL per well in a 384-well plate (BioCoat). Subsequently, the HEK293 cells (20×10^4 cells/cm^2) were seeded by 40 μL per well, and the resultant was cultured for 24 hours in an incubator kept at 37° C. and 5% CO2.
In 2) of Example 1 and Examples 2 and 3, HEK293 cells in which the human olfactory receptor OR5AN1, OR10G4, OR9Q2 or OR1A1 was expressed were produced. […]
The olfactory receptor expressed on the HEK293 cells increases the intracellular cAMP amount by activating adenylate cyclase in conjugation with intracellular Gαs. In the measurement of odor response in this study, luciferase reporter gene assay for monitoring the increase of the intracellular cAMP amount as a luminescence value derived from a firefly luciferase gene (fluc2P-CRE-hygro) was employed. […] Under each of various stimulation conditions, a value fLuc/hRluc obtained by dividing a firefly luciferase-derived luminescence value by a Renilla luciferase-derived luminescence value was calculated. […] A dose-response curve was analyzed using Graph Pad Prism. […]

[4] = test system: odor of p-cresyl isobutyrate; assay: Sensory test of cross-adaptation, target odor p-cresyl isobutyrate; assay type: in vivo, human; conditions: panelists
[5] = test system: odor of p-cresol; assay: Sensory test of cross-adaptation, target odor p-cresol; assay type: in vivo, human; conditions: panelists, test sample smelled before target sample, FIG. 6C
Description: as §1
The sensory test was performed by a single blind method by five to eight panelists. The target sample was first presented to each panelist, who was caused to replay on the odor intensity. Next, the test sample was presented for 2 minutes or until the odor could not be perceived. Thereafter, the target sample was presented again, and the panelist was caused to replay on the odor intensity. This series of operations was defined as one set, and the sensory test was carried out with four sets per day per panelist set as the upper limit. A recess of at least 10 minutes or more was provided between the sets.
The panelist was caused to plot the estimated intensity of the target odor on a straight line of 9.5 cm with both ends respectively provided with criteria “No odor” and “Strong odor”. A distance (A) between the position of the target odor intensity plotted in the initial estimate and the end of “No odor”, and a distance (B) between the position of the target odor intensity plotted in the second estimate and the end of “No odor” were obtained, so as to calculate percentage odor intensity of the initial estimate [B/A*100−100]. As this value is smaller, the intensity of the target odor perceived in the second estimate is suppressed stronger as compared with that in the initial estimate, namely, stronger cross-adaptation is induced. If this value is −100%, it means that the target odor was not perceived at all in the second estimate.

[6] = test system: ethyl vanillin odor; assay: Sensory test of cross-adaptation, target odor ethyl vanillin; assay type: in vivo, human; conditions: panelists

C[C@@H]1CCCCCCCCCCCCC(=O)C1 [muscone, (R)-3-methyl-1-cyclopentadecanone]
cross-adaptation of guaiacol odor induced by test substance [1]: not induced | cross-adaptation of p-methyl quinoline odor induced by test substance [2]: did not induce the cross-adaptation | responsiveness of OR1A1 compared with OR5AN1 [3]: weaker responsiveness | cross-adaptation of p-cresyl isobutyrate odor induced by test substance [4]: did not induce the cross-adaptation | cross-adaptation of p-cresol odor induced by test substance [5]: did not induce the cross-adaptation | cross-adaptation of ethyl vanillin odor induced by test substance [6]: not induced
